How the values were obtained:
corn = assay: Test Example 5: effect on crop by foliage application, plastic box (symbol c); assay type: in vivo; conditions: 320 g/ha, 3 weeks after application
Outline: (§1)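 Greenhouse culture at 25° C. to 30° C. followed spot-like sowing into sterilized diluvial soil, with seed covered by roughly 1.5 cm of soil.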

Veronica persica = assay: Test Example 5: herbicidal effect by foliage application, plastic box (symbol R); assay type: in vivo; conditions: 320 g/ha, 3 weeks after application
Outline: (§2)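 Visual herbicidal score, taken three weeks post-application, of seedlings sprayed on the foliage with water-diluted emulsion at a predetermined amount; plants were 14 days old, greenhouse-raised at 25° C. to 30° C.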

Leptochloa chinensis = assay: Test Example 3: herbicidal effect by foliage application, Wagner pot (symbol D); assay type: in vivo; conditions: application herbicide amount 320 g/ha
Outline: (§3)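 Scoring took place 3 weeks after application, using fixed criteria. Plants had been raised from seed for 14 days at 25 to 30 °C in submerged alluvial soil before a diluted emulsion of the test compound was sprayed uniformly on the leaves.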

[1] = test system: directly sowed rice plant; assay: Test Example 3: effect on crop by foliage application, Wagner pot (symbol b); assay type: in vivo; conditions: application herbicide amount 320 g/ha
Outline: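 Wagner pot (1/10000 are), alluvial soil, submerged 0.1–0.5 cm; sown E. crus-galli var. crus-galli, L. chinensis, C. difformis, rice; greenhouse 25–30 °C.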

Stellaria media = assay: Test Example 5: herbicidal effect by foliage application, plastic box (symbol P); assay type: in vivo; conditions: 320 g/ha, 3 weeks after application
Outline: as §2

Alopecurus myosuroides = assay: Test Example 5: herbicidal effect by foliage application, plastic box (symbol J); assay type: in vivo; conditions: 320 g/ha, 3 weeks after application
Outline: as §2

Apera spica-venti = assay: Test Example 5: herbicidal effect by foliage application, plastic box (symbol L); assay type: in vivo; conditions: 320 g/ha, 3 weeks after application
Outline: as §2

rice plant = assay: Test Example 5: effect on crop by foliage application, plastic box (symbol b); assay type: in vivo; conditions: 320 g/ha, 3 weeks after application
Outline: as §1

Cyperus difformis = assay: Test Example 3: herbicidal effect by foliage application, Wagner pot (symbol E); assay type: in vivo; conditions: application herbicide amount 320 g/ha
Outline: as §3

[2] = test system: Echinochloa crus-galli var. crus-galli; assay: Test Example 3: herbicidal effect by foliage application, Wagner pot (symbol H); assay type: in vivo; conditions: application herbicide amount 320 g/ha
Outline: as §3

soybean = assay: Test Example 5: effect on crop by foliage application, plastic box (symbol d); assay type: in vivo; conditions: 320 g/ha, 3 weeks after application
Outline: as §1

beet = assay: Test Example 5: effect on crop by foliage application, plastic box (symbol f); assay type: in vivo; conditions: 320 g/ha, 3 weeks after application
Outline: as §1

Setaria viridis = assay: Test Example 5: herbicidal effect by foliage application, plastic box (symbol G); assay type: in vivo; conditions: 320 g/ha, 3 weeks after application
Outline: as §2

wheat = assay: Test Example 5: effect on crop by foliage application, plastic box (symbol e); assay type: in vivo; conditions: 320 g/ha, 3 weeks after application
Outline: as §1

Amaranthus retroflexus = assay: Test Example 5: herbicidal effect by foliage application, plastic box (symbol N); assay type: in vivo; conditions: 320 g/ha, 3 weeks after application
Outline: as §2

Galium spurium = assay: Test Example 5: herbicidal effect by foliage application, plastic box (symbol Q); assay type: in vivo; conditions: 320 g/ha, 3 weeks after application
Outline: as §2

Lolium multiflorum Lam. = assay: Test Example 5: herbicidal effect by foliage application, plastic box (symbol K); assay type: in vivo; conditions: 320 g/ha, 3 weeks after application
Outline: as §2

Abutilon theophrasti = assay: Test Example 5: herbicidal effect by foliage application, plastic box (symbol M); assay type: in vivo; conditions: 320 g/ha, 3 weeks after application
Outline: as §2

Digitaria ciliaris = assay: Test Example 5: herbicidal effect by foliage application, plastic box (symbol F); assay type: in vivo; conditions: 320 g/ha, 3 weeks after application
Outline: as §2

[3] = test system: Echinochloa crus-galli var. crus-galli; assay: Test Example 5: herbicidal effect by foliage application, plastic box (symbol H); assay type: in vivo; conditions: 320 g/ha, 3 weeks after application
Outline: as §2

Avena fatua = assay: Test Example 5: herbicidal effect by foliage application, plastic box (symbol I); assay type: in vivo; conditions: 320 g/ha, 3 weeks after application
Outline: as §2

Chenopodium album = assay: Test Example 5: herbicidal effect by foliage application, plastic box (symbol O); assay type: in vivo; conditions: 320 g/ha, 3 weeks after application
Outline: as §2

rapeseed = assay: Test Example 5: effect on crop by foliage application, plastic box (symbol g); assay type: in vivo; conditions: 320 g/ha, 3 weeks after application
Outline: as §1

melting point: 181 to 184 °C
SMILES: CON=C(C)CC1CC(O)=C(c2c(C)cc(C#N)cc2C)C1=O (stereo not drawn) [6-027]
c: corn, effect on crop grade (corn): 1 (Herbicidal ratio of 5% or higher and lower than 20%) | R: Veronica persica, herbicidal effect grade (Veronica persica): 0 (Herbicidal ratio of 5% or lower (almost no effect)) | herbicidal effect on D (Leptochloa chinensis), grade 0-5 (Leptochloa chinensis): 3 (Herbicidal ratio of 40% or higher and lower than 70%) | effect on crop b (directly sowed rice plant), grade 0-5 [1]: 0 (Herbicidal ratio of 5% or lower (almost no effect)) | P: Stellaria media, herbicidal effect grade (Stellaria media): 0 (Herbicidal ratio of 5% or lower (almost no effect)) | J: Alopecurus myosuroides, herbicidal effect grade (Alopecurus myosuroides): 0 (Herbicidal ratio of 5% or lower (almost no effect)) | L: Apera spica-venti, herbicidal effect grade (Apera spica-venti): 0 (Herbicidal ratio of 5% or lower (almost no effect)) | b: directly sowed rice plant, effect on crop grade (rice plant): 1 (Herbicidal ratio of 5% or higher and lower than 20%) | herbicidal effect on E, grade 0-5 (Cyperus difformis): 0 (Herbicidal ratio of 5% or lower (almost no effect)) | herbicidal effect on H (Echinochloa crus-galli var. crus-galli), grade 0-5 [2]: 2 (Herbicidal ratio of 20% or higher and lower than 40%) | d: soybean, effect on crop grade (soybean): 0 (Herbicidal ratio of 5% or lower (almost no effect)) | f: beet, effect on crop grade (beet): 0 (Herbicidal ratio of 5% or lower (almost no effect)) | G: Setaria viridis, herbicidal effect grade (Setaria viridis): 4 (Herbicidal ratio of 70% or higher and lower than 90%) | e: wheat, effect on crop grade (wheat): 0 (Herbicidal ratio of 5% or lower (almost no effect)) | N: Amaranthus retroflexus, herbicidal effect grade (Amaranthus retroflexus): 0 (Herbicidal ratio of 5% or lower (almost no effect)) | Q: Galium spurium, herbicidal effect grade (Galium spurium): 0 (Herbicidal ratio of 5% or lower (almost no effect)) | K: Lolium multiflorum Lam., herbicidal effect grade (Lolium multiflorum Lam.): 0 (Herbicidal ratio of 5% or lower (almost no effect)) | M: Abutilon theophrasti, herbicidal effect grade (Abutilon theophrasti): 0 (Herbicidal ratio of 5% or lower (almost no effect)) | F: Digitaria ciliaris, herbicidal effect grade (Digitaria ciliaris): 3 (Herbicidal ratio of 40% or higher and lower than 70%) | H: Echinochloa crus-galli var. crus-galli, herbicidal effect grade [3]: 4 (Herbicidal ratio of 70% or higher and lower than 90%) | I: Avena fatua, herbicidal effect grade (Avena fatua): 1 (Herbicidal ratio of 5% or higher and lower than 20%) | O: Chenopodium album, herbicidal effect grade (Chenopodium album): 0 (Herbicidal ratio of 5% or lower (almost no effect)) | g: rapeseed, effect on crop grade (rapeseed): 0 (Herbicidal ratio of 5% or lower (almost no effect))

From patent US11000033B2, “Ketone or oxime compound, and herbicide” (NISSAN CHEMICAL CORPORATION, priority 2014, dated 2021)
